Values of other authors, collected in US20220288158A1, “NOVEL ENTERIC COMBINATION THERAPY” (priority 2009, published 2022).

System: patients with constipation
Conditions: for effect on bowel activity when used in constipation: literature, Brandt L J et al 2009

Row | Molecule | effect on bowel activity when used in constipation | use of vancomycin alone in constipation (not all patients respond, and respond but partially)
1 | CC[C@H]1OC(=O)[C@H](C)[C@@H](O[C@H]2C[C@@](C)(OC)[C@@H](O)[C@H](C)O2)[C@H](C)[C@@H](O[C@@H]2O[C@H](C)C[C@H](N(C)C)[C@H]2O)[C@](C)(OC)C[C@@H](C)C(=O)[C@H](C)[C@@H](O)[C@]1(C)O [clarithromycin] | variable and not reproducible | –
2 | Cc1ncc([N+](=O)[O-])n1CCO [metronidazole] | variable and not reproducible | –
3 | CO[C@H]1/C=C/O[C@@]2(C)Oc3c(C)c(O)c4c(O)c(c5c(nc6cc(C)ccn65)c4c3C2=O)NC(=O)/C(C)=C\C=C\[C@H](C)[C@H](O)[C@@H](C)[C@@H](O)[C@@H](C)[C@H](OC(C)=O)[C@@H]1C [rifaximin] | variable and not reproducible | –
4 | CN[C@H](CC(C)C)C(=O)N[C@H]1C(=O)N[C@@H](CC(N)=O)C(=O)N[C@H]2C(=O)N[C@H]3C(=O)N[C@H](C(=O)N[C@H](C(=O)O)c4cc(O)cc(O)c4-c4cc3ccc4O)[C@H](O)c3ccc(c(Cl)c3)Oc3cc2cc(c3O[C@@H]2O[C@H](CO)[C@@H](O)[C@H](O)[C@H]2O[C@H]2C[C@](C)(N)[C@H](O)[C@H](C)O2)Oc2ccc(cc2Cl)[C@H]1O [vancomycin] | – | inefficient
5 | neomycin | variable and not reproducible | –
